Laboratory results taken from ChEMBL document CHEMBL3351642, “Synthesis and structure-activity relationships of PI3K/mTOR dual inhibitors from a series of 2-amino-4-methylpyrido[2,3-d]pyrimidine derivatives” (Bioorg Med Chem Lett, 2014).
pIC50: −log10 of the molar value.

How the values were obtained:
[1] = molecular target: Phosphatidylinositol 4,5-bisphosphate 3-kinase catalytic subunit alpha isoform (Homo sapiens, UniProt P42336); assay: Inhibition of PI3Kalpha (unknown origin) using PIP2/PS as substrate preincubated for 15 mins before substrate addition by luciferase-based luminescence assay
[2] = molecular target: Serine/threonine-protein kinase mTOR (Homo sapiens, UniProt P42345); assay: Inhibition of mTOR (unknown origin) assessed as inhibition of 4EBP-1 phosphorylation preincubated for 15 mins before substrate addition by TR-FRET assay
[3] = Apparent permeability from apical to basolateral side of human Caco2 cells at 10 uM after 90 mins by LC/MS/MS analysis; format: ADME, cell-based; conditions: Caco-2
[4] = Antiproliferative activity against human SKOV3 cells after 3 days by CellTiter-Glo assay; conditions: SK-OV-3, 72 h
[5] = Apparent permeability from basolateral to apical side of human Caco2 cells at 10 uM after 90 mins by LC/MS/MS analysis; format: ADME, cell-based; conditions: Caco-2
[6] = Antiproliferative activity against human U87MG cells after 4 days by CellTiter-Glo assay; conditions: U-87 MG, 96 h
[7] = Efflux ratio of apparent permeability from basolateral to apical side to apical to basolateral of human Caco2 cells; format: ADME, cell-based; conditions: Caco-2

Chain of Phosphatidylinositol 4,5-bisphosphate 3-kinase catalytic subunit alpha isoform (P42336 whole entry, canonical isoform): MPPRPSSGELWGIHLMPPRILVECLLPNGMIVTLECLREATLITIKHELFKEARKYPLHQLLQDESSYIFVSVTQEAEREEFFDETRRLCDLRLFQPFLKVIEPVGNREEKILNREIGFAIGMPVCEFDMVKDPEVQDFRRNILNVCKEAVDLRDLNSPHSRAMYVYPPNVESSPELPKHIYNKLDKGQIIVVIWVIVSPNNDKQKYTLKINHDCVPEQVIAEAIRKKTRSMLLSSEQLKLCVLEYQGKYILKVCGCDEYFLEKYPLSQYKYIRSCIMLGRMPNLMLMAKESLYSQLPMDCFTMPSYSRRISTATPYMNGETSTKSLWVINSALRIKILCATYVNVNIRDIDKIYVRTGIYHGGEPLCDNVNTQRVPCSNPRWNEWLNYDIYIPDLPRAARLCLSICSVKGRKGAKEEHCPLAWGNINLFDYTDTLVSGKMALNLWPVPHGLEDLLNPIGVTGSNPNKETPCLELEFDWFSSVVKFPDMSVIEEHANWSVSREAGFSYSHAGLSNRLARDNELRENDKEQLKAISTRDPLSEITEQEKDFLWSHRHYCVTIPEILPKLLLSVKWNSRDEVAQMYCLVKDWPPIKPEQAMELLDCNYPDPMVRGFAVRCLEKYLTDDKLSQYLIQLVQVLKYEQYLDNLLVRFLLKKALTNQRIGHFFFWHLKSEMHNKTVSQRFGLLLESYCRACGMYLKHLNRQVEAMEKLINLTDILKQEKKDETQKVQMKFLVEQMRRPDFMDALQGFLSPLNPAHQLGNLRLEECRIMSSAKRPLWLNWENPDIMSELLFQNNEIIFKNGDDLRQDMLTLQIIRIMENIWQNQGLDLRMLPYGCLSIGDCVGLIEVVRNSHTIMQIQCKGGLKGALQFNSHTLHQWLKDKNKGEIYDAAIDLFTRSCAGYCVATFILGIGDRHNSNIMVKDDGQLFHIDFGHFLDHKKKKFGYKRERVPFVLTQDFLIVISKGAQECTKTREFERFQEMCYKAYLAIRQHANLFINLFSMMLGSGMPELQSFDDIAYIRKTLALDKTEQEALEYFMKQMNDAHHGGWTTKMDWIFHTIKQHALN

**Q.** With `COc1ccc(-c2cnc3nc(N)nc(C)c3c2)cn1` as the molecule, how does the pIC50 [1] read?
**A.** 6.38

**Q.** With `COc1ncc(-c2cnc3nc(N)nc(C)c3c2)cc1NC(=O)C(F)(F)F` as the molecule, how does the pIC50 [1] read?
**A.** < 6.00

**Q.** With `COc1ncc(-c2cnc3nc(N)nc(C)c3c2)cc1F` as the molecule, how does the pIC50 [1] read?
**A.** 6.93

**Q.** With `CCCCS(=O)(=O)Nc1cc(-c2cnc3nc(N)nc(C)c3c2)cnc1OC` as the molecule, how does the pIC50 [1] read?
**A.** 7.32

**Q.** With `COc1ncc(-c2cnc3nc(N)nc(C)c3c2)cc1NS(=O)(=O)c1ccccc1` as the molecule, how does the pIC50 [1] read?
**A.** 7.20

**Q.** What about the pIC50 [2] of the same molecule?
**A.** 7.10

**Q.** With `COc1ncc(-c2cnc3nc(N)nc(C)c3c2)cc1NS(=O)(=O)C1CC1` as the molecule, how does the pIC50 [1] read?
**A.** 7.25

**Q.** What does the source list for `COc1ncc(-c2cnc3nc(N)nc(C)c3c2)cc1NS(=O)(=O)c1cccs1`?
**A.** pIC50 [1]: 7.63; pIC50 [2]: 6.61

**Q.** With `Cc1nc(N)nc2ncc(-c3cnc4[nH]ccc4c3)cc12` as the molecule, how does the pIC50 [1] read?
**A.** 7.42

**Q.** With `COc1ncc(-c2cnc3nc(N)nc(C)c3c2)cc1NS(=O)(=O)c1ccc(Cl)s1` as the molecule, how does the pIC50 [1] read?
**A.** 8.16

**Q.** What about the pIC50 [2] of the same molecule?
**A.** 7.42

**Q.** What does the source list for `COc1ncc(-c2cnc3nc(N)nc(C)c3c2)cc1NS(=O)(=O)c1cccnc1`?
**A.** pIC50 [1]: 8.11; pIC50 [2]: 6.95

**Q.** With `Cc1nc(N)nc2ncc(-c3cnc4[nH]cc(NS(=O)(=O)c5ccc(F)cc5F)c4c3)cc12` as the molecule, how does the pIC50 [1] read?
**A.** 7.12

**Q.** Which results are given for `COc1ccc(-c2cc3c(C)nc(N)nc3n([C@H]3CC[C@H](OCCO)CC3)c2=O)cn1` [PF-04691502]?
**A.** Papp A→B at 1.5 h, 10 µM [3]: 25.7 ×10⁻⁶ cm/s; pIC50 [4]: 6.54; Papp B→A at 1.5 h, 10 µM [5]: 32.5 ×10⁻⁶ cm/s; pIC50 [6]: 6.28

**Q.** With `COc1ncc(-c2cnc3nc(N)nc(C)c3c2)cc1N` as the molecule, how does the pIC50 [1] read?
**A.** 6.20

**Q.** With `COc1ncc(-c2cnc3nc(N)nc(C)c3c2)cc1NC(=O)c1ccc(F)cc1F` as the molecule, how does the pIC50 [1] read?
**A.** < 6.00

**Q.** With `COc1ncc(-c2cnc3nc(N)nc(C)c3c2)cc1NC(=O)Nc1ccc(F)cc1F` as the molecule, how does the pIC50 [1] read?
**A.** < 6.00

**Q.** With `COc1ncc(-c2cnc3nc(N)nc(C)c3c2)cc1NS(C)(=O)=O` as the molecule, how does the pIC50 [1] read?
**A.** 6.84

**Q.** With `COc1ncc(-c2cnc3nc(N)nc(C)c3c2)cc1NS(=O)(=O)c1ccc(C(F)(F)F)cc1` as the molecule, how does the pIC50 [1] read?
**A.** 8.08

**Q.** What about the pIC50 [2] of the same molecule?
**A.** 7.17

**Q.** With `Cc1nc(N)nc2ncc(-c3cnc4[nH]nc(NS(=O)(=O)c5ccc(F)cc5F)c4c3)cc12` as the molecule, how does the pIC50 [1] read?
**A.** 7.08

**Q.** Which results are given for `COc1ncc(-c2cnc3nc(N)nc(C)c3c2)cc1NS(=O)(=O)c1ccc(C#N)cc1`?
**A.** pIC50 [1]: 8.55; Papp A→B at 1.5 h, 10 µM [3]: 1.04 ×10⁻⁶ cm/s; efflux ratio [7]: 13.5; pIC50 [4]: 5.04; Papp B→A at 1.5 h, 10 µM [5]: 14 ×10⁻⁶ cm/s; pIC50 [6]: 5.61; pIC50 [2]: 7.34

**Q.** With `COc1ccc(S(=O)(=O)Nc2cc(-c3cnc4nc(N)nc(C)c4c3)cnc2OC)cc1` as the molecule, how does the pIC50 [1] read?
**A.** 7.17

**Q.** What about the pIC50 [2] of the same molecule?
**A.** 6.74

**Q.** With `COc1ncc(-c2cnc3nc(N)nc(C)c3c2)cn1` as the molecule, how does the pIC50 [1] read?
**A.** 6.66
